Reference: US20250270202A1, “SUBSTITUTED 4-AMINOISOINDOLINE COMPOUND, PREPARATION METHOD THEREFOR, PHARMACEUTICAL COMPOSITION THEREOF, AND USE THEREOF” (SHANGHAI INSTITUTE OF MATERIA MEDICA, CHINESE ACADEMY OF …, priority 2022, published 2025)
Where two headings read alike, the source gives them in different places.

Tests used:
Format in all cases: cell-based
MV-4-11 cells = experiment: Inhibition of MV-4-11 cell proliferation (MTS, 7 days); conditions: Homo sapiens
Method: MV-4-11 cells were cultured in IMDM with 10% fetal bovine serum, collected, and diluted to the appropriate cell concentration for a 7-day treatment period. A 96-well plate was used, and 180 μL of cell suspension was added to each well, resulting in a cell count of 2,000 per well. For the control wells, 20 μL of DMSO at a final concentration of 0.2% was added. The compounds were diluted from a 10 mM stock solution in a five-fold gradient, and 20 μL was added to the compound wells (with a final DMSO concentration of 0.2%). The cells were incubated in a 37° C., 5% CO2 incubator for 7 days. After preparing the reaction solution using the MTS reagent kit (Promega, G5430), 20 μL was added to each well, and the cells were incubated in the incubator for 3-4 hours. The absorbance at 490 nm was measured using a microplate reader, with the absorbance at 690 nm as the background value. The final data was calculated as OD490-OD690. The inhibition rate of the compounds was calculated using the formula: […]
The IC50 values for proliferation inhibition were calculated using GraphPad Prism 5.0. The experiments were repeated three times, with three parallel experiments for each, and the mean and standard deviation were calculated.
The cell activity test results are shown in Table 3: A indicates IC50<1 μM, B indicates 1 µM≤IC50≤20 μM, and C indicates IC50>20 μM.

Mino cells = experiment: Inhibition of cell proliferation of Mino cells (MTS, 3 days); conditions: Homo sapiens, MINO
Method: Mino cells were cultured with RPMI-1640 medium supplemented with 15% fetal bovine serum, and collected. The cell concentration was diluted according to a 3-day treatment period, and 90 μL of the cell suspension was added to each well of a 96-well plate, resulting in 8000 cells per well. For control wells, 10 μL of DMSO at a final concentration of 0.2% was added. The compounds were diluted in a 5-fold gradient from a 10 mM stock solution, and 10 μL of each compound solution was added to the experimental wells (with a final DMSO concentration of 0.2%). The cells were incubated in a 37° C., 5% CO2 incubator for 3 days. After preparing the reaction mixture using the MTS reagent kit (Promega, G5430), 20 μL was added to each well, and the cells were incubated for 3-4 hours at 37° C., 5% CO2.
The absorbance at 490 nm was read using a microplate reader, with the absorbance at 690 nm used as the background. The final raw data was calculated as OD490-OD690. The inhibition rate of the compounds was calculated using the formula: Inhibition rate=(OD DMSO−OD compound)/(OD DMSO−OD blank)×100%. The IC50 values for cell proliferation inhibition of the compounds were fitted using GraphPad Prism 5.0. The experiment was repeated three times, with the average and standard deviation calculated from three parallel experiments each time.

MM.1S cells = experiment: Effect of the compound on MM.1S cell proliferation (MTS, 7 days); conditions: Homo sapiens, MM1.S
Method: MM.1S cells were cultured in 1640 medium supplemented with 10% fetal bovine serum, then collected and diluted to the desired cell concentration after 7 days of treatment. A total of 180 μL of cell suspension was added to each well in a 96-well cell plate, ensuring 20,000 cells per well. For the control group, 20 μL of 0.2% DMSO was added to each well. Compounds were diluted in a 5-step gradient from a 10 mM stock solution, and 20 μL of each dilution was added to the compound-containing wells (with a final DMSO concentration of 0.2%). The cells were incubated in a 37° C., 5% CO2 incubator for 7 days. Afterward, 20 μL of the MTS reagent (Promega, G5430) was added to each well, followed by incubation for 3-4 hours in a 37° C., 5% CO2 incubator. Absorbance at 490 nm was measured using a microplate reader, with 690 nm absorbance as the background. The final raw data was calculated as OD490-OD690. The compound inhibition rate was calculated using the formula: […]
The IC50 for the compound's proliferative inhibition was fitted using GraphPad Prism 5.0. The experiment was repeated three times, and the average and standard deviation were calculated using three parallel experiments per trial.

[1] = MV4-11, positive compounds, read-out: IC50 in MV-4-11 acute leukemia cells
[2] = 72 h, 3 days, MTS, Table 2, read-out: Mino Cells Inhibition Activity IC50
[3] = MV4-11, 168 h, 7 days, MTS, Table 3, read-out: MV-4-11 Cells Inhibition Activity IC50
[4] = 168 h, 7 days, MTS, Table 1, read-out: MM.1S Cells Inhibition Activity IC50
[5] = Table 4, read-out: Inhibitory Activity of Compounds on Cell Proliferation Mino IC50
[6] = MV4-11, Table 4, values in nM, read-out: Inhibitory Activity of Compounds on Cell Proliferation MV-4-11 IC50
[7] = Table 4, read-out: Inhibitory Activity of Compounds on Cell Proliferation MM.1S IC50

SMILES	IC50 (MV-4-11 cells; [1]) [nM]	IC50 (Mino cells; [2]) [nM]	IC50 (MV-4-11 cells; [3]) [nM]	IC50 (MM.1S cells; [4]) [nM]	IC50 (Mino cells; [5]) [nM]	IC50 (MV-4-11 cells; [6]) [nM]	IC50 (MM.1S cells; [7]) [nM]
Cc1nc2cccc(N)c2c(=O)n1C1CCC(=O)NC1=O (stereo not drawn) [CC-122, reference compound]	> 20000	–	–	–	–	–	–
O=C1CCC(N2Cc3c(OCc4ccc(CN5CCOCC5)cc4)cccc3C2=O)C(=O)N1 (stereo not drawn) [CC-220, reference compound]	> 20000	60 to 120	> 20000	< 15	–	–	–
CC1(C(=O)N2CCC(c3ncc(CNc4cccc5c4C(=O)N(C4CCC(=O)NC4=O)C5=O)o3)CC2)CCC1 (stereo not drawn) [Example 1]	–	< 60	1000 to 20000	< 15	–	–	–
O=C1CCC(N2C(=O)c3cccc(NCc4cnc(C5CCN(C(=O)C6(c7ccc(F)cc7)CCC6)CC5)o4)c3C2=O)C(=O)N1 (stereo not drawn) [Example 2]	–	< 60	< 1000	< 15	–	–	–
O=C1CCC(N2C(=O)c3cccc(NCc4cnc(C5CCN(C(=O)C67CC8CC(CC(C8)C6)C7)CC5)o4)c3C2=O)C(=O)N1 (stereo not drawn) [Example 3, 4-((2-(1-((3r,5r,7r)-adamantane-1-carbonyl)piperidin-4-yl)oxazol-5-yl)methyl)amino)-2-(2,6-dioxopiperidin-3-yl)isoindoline-1,3-dione]	–	< 60	1000 to 20000	< 15	–	–	–
O=C1CCC(N2C(=O)c3cccc(NCc4cnc(C5CCN(C(=O)C6(C(F)(F)F)CCC6)CC5)o4)c3C2=O)C(=O)N1 (stereo not drawn) [Example 4]	–	< 60	< 1000	< 15	–	–	–
O=C1CCC(N2C(=O)c3cccc(NCc4cnc(C5CCN(C(=O)c6ccc(F)cc6)CC5)o4)c3C2=O)C(=O)N1 (stereo not drawn) [Example 5]	–	> 120	1000 to 20000	15 to 30	–	–	–
N#Cc1ccc(C(=O)N2CCC(c3ncc(CNc4cccc5c4C(=O)N(C4CCC(=O)NC4=O)C5=O)o3)CC2)c(F)c1 (stereo not drawn) [Example 6, 4-(4-(5-(((2-(2,6-dioxopiperidin-3-yl)-1,3-dioxoisindole-4-yl)amino)methyl)oxazol-2-yl)piperidine-1-carbonyl)-3-fluorobenzonitrile]	–	60 to 120	1000 to 20000	30 to 150	–	–	–
O=C1CCC(N2C(=O)c3cccc(NCc4cnc(C5CCN(C(=O)c6ccc(OC(F)(F)F)cc6)CC5)o4)c3C2=O)C(=O)N1 (stereo not drawn) [Example 7]	–	> 120	1000 to 20000	15 to 30	–	–	–
O=C1CCC(N2C(=O)c3cccc(NCc4cnc(C5CCN(C(=O)c6ccc(Cl)cc6Cl)CC5)o4)c3C2=O)C(=O)N1 (stereo not drawn) [Example 8]	–	60 to 120	< 1000	15 to 30	–	–	–
CC(C)(C)C(=O)N1CCC(c2ncc(CNc3cccc4c3C(=O)N(C3CCC(=O)NC3=O)C4=O)o2)CC1 (stereo not drawn) [Example 9]	–	> 120	< 1000	< 15	141	782	8.8
CC1(C(=O)N2CCC(c3ncc(CNc4cccc5c4C(=O)N(C4CCC(=O)NC4=O)C5=O)o3)CC2)CCCCC1 (stereo not drawn) [Example 10]	–	60 to 120	1000 to 20000	< 15	–	–	–
O=C1CCC(N2C(=O)c3cccc(NCc4cnc(C5CCN(C(=O)CC67CC8CC(CC(C8)C6)C7)CC5)o4)c3C2=O)C(=O)N1 (stereo not drawn) [Example 11]	–	< 60	< 1000	< 15	–	–	–
O=C1CCC(N2C(=O)c3cccc(NCc4cnc(C5CCN(Cc6ccc(F)cc6)CC5)o4)c3C2=O)C(=O)N1 (stereo not drawn) [Example 12]	–	> 120	< 1000	30 to 150	–	–	–
N#Cc1ccc(CN2CCC(c3ncc(CNc4cccc5c4C(=O)N(C4CCC(=O)NC4=O)C5=O)o3)CC2)c(F)c1 (stereo not drawn) [Example 13]	–	> 120	1000 to 20000	30 to 150	–	–	–
O=C1CCC(N2C(=O)c3cccc(NCc4cnc(C5CCN(Cc6ccc(OC(F)(F)F)cc6)CC5)o4)c3C2=O)C(=O)N1 (stereo not drawn) [Example 14]	–	60 to 120	< 1000	15 to 30	–	–	–
O=C1CCC(N2C(=O)c3cccc(NCc4cnc(-c5ccc(OC(F)(F)F)cc5)o4)c3C2=O)C(=O)N1 (stereo not drawn) [Example 15]	–	60 to 120	< 1000	< 15	60.5	750	6.4
COc1ccc(-c2ncc(CNc3cccc4c3C(=O)N(C3CCC(=O)NC3=O)C4=O)o2)cc1 (stereo not drawn) [Example 16]	–	< 60	< 1000	< 15	–	–	–
COc1cccc(-c2ncc(CNc3cccc4c3C(=O)N(C3CCC(=O)NC3=O)C4=O)o2)c1 (stereo not drawn) [Example 17]	–	60 to 120	1000 to 20000	< 15	–	–	–
O=C1CCC(N2C(=O)c3cccc(NCc4cnc(-c5cccc(OC(F)(F)F)c5)o4)c3C2=O)C(=O)N1 (stereo not drawn) [Example 55]	–	–	< 1000	15 to 30	–	–	–
O=C1CCC(N2C(=O)c3cccc(NCc4cnc(-c5ccccc5OC(F)(F)F)o4)c3C2=O)C(=O)N1 (stereo not drawn) [Example 56]	–	–	1000 to 20000	30 to 150	–	–	–
O=C1CCC(N2C(=O)c3cccc(NCc4cnc(-c5cccc(Cl)c5)s4)c3C2=O)C(=O)N1 (stereo not drawn) [Example 68, 4-(((2-(3-Chlorophenyl)thiazol-5-yl)methyl)amino)-2-(2,6-Dioxopiperidin-3-yl)isoindolin-1,3-dione]	–	> 120	< 1000	–	–	–	–
O=C1CCC(N2C(=O)c3cccc(NCc4cnc(-c5cccc(F)c5)o4)c3C2=O)C(=O)N1 (stereo not drawn) [Example 70, 2-(2,6-Dioxopiperidin-3-yl)-4-(((2-(3-Fluorophenyl)oxazol-5-yl)methyl)amino)isoindolin-1,3-dione]	–	–	1000 to 20000	15 to 30	–	–	–
O=C1CCC(N2C(=O)c3cccc(NCc4cnc(-c5cc(Cl)cc(Cl)c5)o4)c3C2=O)C(=O)N1 (stereo not drawn) [Example 75, 4-(((2-(3,5-Dichlorophenyl)oxazol-5-yl)methyl)amino)-2-(2,6-Dioxopiperidin-3-yl)isoindolin-1,3-dione]	–	> 120	< 1000	–	–	–	–
O=C1CCC(N2C(=O)c3cccc(NCc4cnc(-c5ccccc5OC5COC5)o4)c3C2=O)C(=O)N1 (stereo not drawn) [Example 101]	–	–	1000 to 20000	–	–	–	–
O=C1CCC(N2C(=O)c3cccc(NCc4cnc(-c5ccc(OC6COC6)cc5)s4)c3C2=O)C(=O)N1 (stereo not drawn) [Example 102]	–	–	1000 to 20000	30 to 150	–	–	–
